Experimental data published in patent US20120094897A1, “NOVEL INHIBITORS OF HEPATITIS C VIRUS REPLICATION” (InterMune, Inc., priority 2010, published 2012).

What was measured:
[1] = tested on: HCV sub-genomic replicon (I377/NS3-3′) in HuH-7 hepatoma cells (GS4.3); assay: Quantitation by ELISA of NPTII in the HCV sub-genomic replicon, GS4.3; assay type: cell-based; conditions: Hepatitis C virus, GS4.3 replicon cells, 72 h incubation
Experimental: The HCV sub-genomic replicon (I377/NS3-3′, accession No. AJ242652), stably maintained in HuH-7 hepatoma cells, was created by Lohmann et al. Science 285: 110-113 (1999). The replicon-containing cell culture, designated GS4.3, was obtained from Dr. Christoph Seeger of the Institute for Cancer Research, Fox Chase Cancer Center, Philadelphia, Pa.
GS4.3 cells were maintained at 37° C., 5% CO2, in DMEM (Gibco 11965-092) supplemented with L-glutamine 200 mM (100×) (Gibco25030-081), non-essential amino acids (NEAA)(Biowhittaker 13-114E), heat-inactivated (HI) Fetal Bovine Serum(FBS)(Hyclone SH3007.03) and […] geneticin (G418)(Gibco 10131-035). Cells were sub-divided 1:3 or 4 every 2-3 days.
24 h prior to the assay, GS4.3 cells were collected, counted, and plated in 96-well plates (Costar 3585) at 7500 cells/well in 100 μL standard maintenance medium (above) and incubated in the conditions above. To initiate the assay, culture medium was removed, cells were washed once with PBS (Gibco 10010-023) and 90 μl Assay Medium (DMEM, L-glutamine, NEAA, 10% HI FBS, no G418) was added. Inhibitors were made as a 10× stock in Assay Medium, (3-fold dilutions from 10 μM to […] final concentration, final DMSO concentration 1%), 10 μL were added to duplicate wells, plates were rocked to mix, and incubated as above for 72 h.
An NPTII Elisa kit was obtained from AGDIA, Inc. (Compound direct ELISA test system for Neomycin Phosphotransferase II, PSP 73000/4800). Manufacturer's instructions were followed, with some modifications. 10×PEB-1 lysis buffer was made up to include 500 μM PMSF (Sigma P7626, 50 mM stock in isopropanol). After 72 h incubation, cells were washed once with PBS and 150 μL PEB-1 with PMSF was added per well. Plates were agitated vigorously for 15 minutes, room temperature, and then frozen at −70° C. Plates were thawed, lysates were mixed thoroughly, and 100 μL were applied to an NPTII Elisa plate. A standard curve was made. Lysate from DMSO-treated control cells was pooled, serially diluted with PEB-1 with PMSF, and applied to duplicate wells of the ELISA plate, in a range of initial lysate amount of 150 μL. In addition, 100 μL buffer alone was applied in duplicate as a blank. Plates were sealed and gently agitated at room temperature for 2 h. Following capture incubation, the plates were washed 5×300 μL with PBS-T (0.5% Tween-20, PBS-T was supplied in the ELISA kit). For detection, a 1× dilution of enzyme conjugate diluent MRS-2 (5×) was made in PBS-T, into which 1:100 dilutions of enzyme conjugates A and B were added, as per instructions. Plates were resealed, and incubated with agitation, covered, room temperature, for 2 h. The washing was then repeated and 100 μL of room temperature TMB substrate was added. After approximately 30 minutes incubation (room temperature, agitation, covered), the reaction was stopped with 50 μL 3M sulfuric acid. Plates were read at 450 nm on a Molecular Devices Versamax plate reader.
Inhibitor effect was expressed as a percentage of DMSO-treated control signal, and inhibition curves were calculated using a 4-parameter equation: y=A+4B−A)/(1+((C/x)̂D))), where C is half-maximal activity or EC50.

[2] = target: T1, HCV NS3 protease (full-length NS3/NS4A-2 complex) (Hepatitis C virus genotype 1a, UniProt P27958); assay: NS3 Inhibition Assay (NS3-NS4 protease assay, RETS1 substrate); assay type: biochemical; conditions: NS3/NS4A-2, RETS1 substrate, 10 minutes pre-incubation
T1 construct: Recombinant E. coli or Baculovirus full-length NS3 was diluted to 3.33 μM with assay buffer; host or cells: E. coli or baculovirus (insect cells)
T1 sequence (P27958 1027-1657, one chain of several): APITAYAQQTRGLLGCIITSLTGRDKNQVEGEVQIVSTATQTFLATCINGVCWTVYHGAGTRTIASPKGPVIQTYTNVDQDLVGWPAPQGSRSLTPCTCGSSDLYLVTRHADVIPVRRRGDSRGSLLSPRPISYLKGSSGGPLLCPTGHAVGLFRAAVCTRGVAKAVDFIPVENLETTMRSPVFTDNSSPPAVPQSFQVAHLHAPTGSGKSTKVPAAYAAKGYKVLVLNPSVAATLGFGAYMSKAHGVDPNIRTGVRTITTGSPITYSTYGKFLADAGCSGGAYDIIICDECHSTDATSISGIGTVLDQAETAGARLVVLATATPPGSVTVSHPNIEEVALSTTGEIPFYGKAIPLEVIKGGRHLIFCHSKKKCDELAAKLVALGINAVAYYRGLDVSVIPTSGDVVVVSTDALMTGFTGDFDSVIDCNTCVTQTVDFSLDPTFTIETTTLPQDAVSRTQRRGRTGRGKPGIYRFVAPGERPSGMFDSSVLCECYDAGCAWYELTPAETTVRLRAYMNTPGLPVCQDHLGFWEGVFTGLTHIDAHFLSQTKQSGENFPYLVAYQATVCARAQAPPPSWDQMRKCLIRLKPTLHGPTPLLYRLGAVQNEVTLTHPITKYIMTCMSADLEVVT
Experimental: NS3 Complex Formation with NS4A-2.
Recombinant E. coli or Baculovirus full-length NS3 was diluted to 3.33 μM with assay buffer and the material was transferred to an eppendorf tube and placed in a water bath in a 4° C. refrigerator. The appropriate amount of NS4A-2 diluted to 8.3 mM in assay buffer was added to an equal the volume of NS3 above (conversion factor—3.8 mg/272 μL assay buffer). The material was transferred to an eppendorf tube and placed in water bath in a 4° C. refrigerator.
After equilibration to 4° C., equal volumes of NS3 and NS4A-2 solutions were combined in an eppendorf tube, mixed gently with a manual pipettor, and incubated for 15 minutes in the 4° C. water bath. Final concentrations in the mixture are 1.67 μM NS3, 4.15 mM NS4A-2 (2485-fold molar excess NS4A-2).
After 15 minutes at 4° C., the NS3/NS4A-2 eppendorf tube was removed and placed in a room temperature water bath for 10 minutes. NS3/NS4A-2 was aliquoted at appropriate volumes and stored at −80° C. (E. coli NS3 run at 2 nM in assay, aliquot at 25 μL. BV NS3 run at 3 nM in assay, aliquot at 30 μL).
Step a. Sample compounds were dissolved to 10 mM in DMSO then diluted to 2.5 mM (1:4) in DMSO. Typically, compounds were added to an assay plate at 2.5 mM concentration, yielding upon dilution a starting concentration of 50 μM in the assay inhibition curve. Compounds were serial diluted in assay buffer to provide test solutions at lower concentrations.
Step 1. The E. coli. NS3/NS4A-2 was diluted to 4 nM NS3 (1:417.5 of 1.67 μM stock−18 μL 1.67 μM stock+7497 μL assay buffer). The BV NS3/NS4A-2 was diluted to 6 nM NS3 (1:278.3 of 1.67 μM stock−24 μL 1.67 μM stock+6655 μL assay buffer).
Step. 2. Using the manual multichannel pipettor, and being careful not to introduce bubbles into the plate, 50 μL assay buffer was added to wells A01-H01 of a black Costar 96-well polypropylene storage plate.
Step 3. Using the manual multichannel pipettor, and being careful not to introduce bubbles into the plate, 50 μL of diluted NS3/NS4A-2 from step 1 was added to wells A02-H12 of the plate in step 2.
Step 4. Using the manual multichannel pipettor, and being careful not to introduce bubbles into the plate, 25 μL of the wells in drug dilution plate in step a was transferred to corresponding wells in assay plate in step 3. The tips on the multichannel pipettor were changed for each row of compounds transferred.
Step 5. Using the manual multichannel pipettor, and being careful not to introduce bubbles into the plate, the contents of the wells from the assay plate in step 4 were mixed by aspirating and dispensing 35 μL of the 75 μL in each well five times. The tips on multichannel pipettor were changed for each row of wells mixed.
Step 6. The plate was covered with a polystyrene plate lid, and the plate from step 5 containing NS3 protease and sample compounds was pre-incubated 10 minutes at room temperature.
While the plate from step 6 is pre-incubating, the RETS1 substrate was diluted in a 15 mL polypropylene centrifuge tube. The RETS1 substrate was diluted to 8 μM (1:80.75 of 646 μM stock−65 μL 646 μM stock+5184 μL assay buffer).
After the plate in step 6 finished pre-incubating, and using the manual multichannel, 25 μL of substrate was added to all wells on the plate. The contents of the wells of the plate were quickly mixed, as in step 5, mixing 65 μL of the 100 μL in the wells.
The plate was read in kinetic mode on the Molecular Devices SpectraMax Gemini XS plate reader. Reader settings: Read time: 30 minutes, Interval: 36 seconds, Reads: 51, Excitation λ: 335 nm, Emission λ: 495 nm, cutoff: 475 nm, Automix: off, Calibrate: once, PMT: high, Reads/well: 6, Vmax pts: 21 or 28/51 depending on length of linearity of reaction
IC50s are determined using a four parameter curve fit equation, and converted to Ki's using the following Km's: • Full-length E. coli NS3-2.03 μM • Full-length BV NS3-1.74 μM • where Ki=IC50/(1+[S]/Km))

| Structure (SMILES) | EC50 [1] [µM] | IC50 [2] [µM] |
| --- | --- | --- |
| CC[C@@H]1C[C@@]12NC(=O)[C@@H]1C[C@H](CN1C(=O)[C@@H](NC(=O)OC(C)(C)C)C(C)(C)C)Oc1nc3c(cccc3n1C(C)C)CCCC/C=C/CCCC1(CC1)S(=O)(=O)NC2=O [Compound 111] | ≥ 0.1 | 0.01 to 0.1 |
| CC[C@@H]1C[C@@]12NC(=O)[C@@H]1C[C@H](CN1C(=O)[C@@H](NC(=O)OC(C)(C)C)C(C)(C)C)Oc1nc3c(cccc3n1C(C)C)CCCCCCCCCC1(CC1)S(=O)(=O)NC2=O [Compound 112] | ≥ 0.1 | ≤ 0.01 |
| CC[C@@H]1C[C@@]12NC(=O)[C@@H]1C[C@H](CN1C(=O)[C@@H](N)C(C)(C)C)Oc1nc3c(cccc3n1C(C)C)CCCCCCCCCC1(CC1)S(=O)(=O)NC2=O [Compound 113] | ≥ 0.1 | 0.01 to 0.1 |
